Test results published in US20260070945A1, “MACROCYCLIC IMMUNOMODULATORS” (Bristol-Myers Squibb Company, priority 2022, published 2026).
*1 amine or outer side, *2 acyl side, *3 side chain or, on linkers, in order; H or OH if unused. Where a SMILES comes first, the peptide text is derived from it. Bridges are numbered along the chain shown (N, C = ends). [ ]: non-standard residue; d: D form. The star is where a group is joined. ξ: configuration not given here. Phe(4-CH2CH2COOH) = N[C@@H](Cc1ccc(CCC(=O)O)cc1)C(=O)O; Phe(3-CF3) = N[C@@H](Cc1cccc(C(F)(F)F)c1)C(=O)O; Phe(4-COOH) = N[C@@H](Cc1ccc(C(=O)O)cc1)C(=O)O; Bip = N[C@@H](Cc1ccc(-c2ccccc2)cc1)C(=O)O; NH(CH2)14COOH = O=C(O)CCCCCCCCCCCCCCN*; Phe(3-Me) = Cc1cccc(C[C@H](N)C(=O)O)c1; Phe(4-F) = N[C@@H](Cc1ccc(F)cc1)C(=O)O; Abu(3S-NH2) = C[C@H](N)[C@H](N)C(=O)O; βAsp = O=C(O)[C@H](CC(=O)[*:2])N[*:1]; NH(CH2)12COOH = O=C(O)CCCCCCCCCCCCN*; Cyclopropanecarbonyl = O=C(C1CC1)*; Val(3-OH) = CC(C)(O)[C@H](N)C(=O)O; 4Pal = N[C@@H](Cc1ccncc1)C(=O)O; Cha = N[C@@H](CC1CCCCC1)C(=O)O; Cit = NC(=O)NCCC[C@H](N)C(=O)O; Thr(3ξ) = CC(O)[C@H](N)C(=O)O; 12Ado = NCCCCCCCCCCCC(=O)O; Carboxymethyl = O=C(O)C*; NMeA = CN[C@@H](C)C(=O)O; Orn = NCCC[C@H](N)C(=O)O; Aun = NCCCCCCCCCCC(=O)O; Dab = NCC[C@H](N)C(=O)O; AEEA = NCCOCCOCC(=O)O

Each compound was assayed against T1, PD-1/PD-L1 interaction (PE-labeled human PD-L1-Ig binding to Jurkat cell line over-expressing human PD-1) (Homo sapiens, UniProt Q15116) (assay: Jurkat-PD-1 Cell Binding High-Content Screening Assay (CBA)). Settings: Jurkat-hPD-1 cells, PE-labeled PD-L1-Ig 20 nM final; read-out: Jurkat HPD1 PDL1 IC50.
T1 construct: expressed in transfected cells; host or cells: Jurkat
T1 sequence (Q15116 25-288): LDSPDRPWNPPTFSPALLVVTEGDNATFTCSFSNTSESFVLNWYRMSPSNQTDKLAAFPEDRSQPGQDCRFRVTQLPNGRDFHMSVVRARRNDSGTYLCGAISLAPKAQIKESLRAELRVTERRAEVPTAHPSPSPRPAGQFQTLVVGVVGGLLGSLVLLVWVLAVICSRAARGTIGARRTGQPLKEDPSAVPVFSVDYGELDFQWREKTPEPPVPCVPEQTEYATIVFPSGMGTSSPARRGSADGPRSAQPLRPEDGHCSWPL
In short: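 High-content imaging read-out of PE-PD-L1-Ig binding (20 nM final, 1 h) to Jurkat-hPD-1 cells, after 2 h compound exposure at 37 °C in DMEM with 10% FCS. Nuclei counterstained with Hoechst 33342 after paraformaldehyde fixation.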

Structure (SMILES) | IC50 [nM]
CC(C)C[C@@H]1NC(=O)[C@H](Cc2c[nH]c3ccccc23)NC(=O)[C@H](CC(=O)O)NC(=O)[C@H](Cc2ccc(OCC(=O)O)cc2)NC(=O)[C@H](Cc2ccncc2)NC(=O)CSC[C@@H](C(=O)N[C@@H](CC(N)=O)C(=O)N[C@@H](CC(=O)NCCOCCOCC(=O)NCCCCCCCCCCC(=O)O)C(=O)O)NC(=O)[C@H](CO)NC(=O)[C@H](C(C)C)NC(=O)[C@H](CC2CCCCC2)NC(=O)[C@H](CC(N)=O)NC(=O)[C@@H](CC(C)C)NC(=O)[C@H](C)N(C)C(=O)[C@H](C(C)C)NC(=O)[C@H](Cc2ccc(-c3ccccc3)cc2)NC1=O [Example 2022] ({CH2CO}-[4Pal]Y(Carboxymethyl)DWL[Bip]V[NMeA][dL]N[Cha]VSCN[βAsp][AEEA][Aun]-OH; thioether N-14) | 129
CC(C)C[C@H]1NC(=O)[C@H](C)N(C)C(=O)[C@H](CCCNC(N)=O)NC(=O)[C@H](Cc2ccc(-c3ccccc3)cc2)NC(=O)[C@H](Cc2ccc(C(=O)O)cc2)NC(=O)[C@H](Cc2cccc(C(F)(F)F)c2)NC(=O)[C@H](CC(=O)O)NC(=O)[C@H](Cc2ccc(OCC(=O)O)cc2)NC(=O)[C@H]([C@H](C)N)NC(=O)CSC[C@@H](C(=O)N[C@@H](CCN)C(=O)NCCCCCCCCCCCCC(=O)O)NC(=O)[C@H](Cc2c[nH]cn2)NC(=O)[C@H](C(C)(C)O)NC(=O)[C@H](CC2CCCCC2)NC(=O)[C@H](CCN)NC1=O [Example 1197] ({CH2CO}-[Abu(3S-NH2)]Y(Carboxymethyl)D[Phe(3-CF3)][Phe(4-COOH)][Bip][Cit][NMeA][dL][Dab][Cha][Val(3-OH)]HC[Dab]-{NH(CH2)12COOH}; thioether N-14) | 18.9
CC(C)C[C@@H]1NC(=O)[C@H](Cc2c[nH]c3ccccc23)NC(=O)[C@H](CC(=O)O)NC(=O)[C@H](Cc2ccncc2)NC(=O)[C@H](Cc2ccc(OCC(=O)O)cc2)NC(=O)CSC[C@@H](C(=O)N[C@@H](CCCN)C(=O)NCCCCCCCCCCC(=O)O)NC(=O)[C@H](CCC(=O)O)NC(=O)[C@H](C(C)C)NC(=O)[C@H](CC2CCCCC2)NC(=O)[C@H](CCN)NC(=O)[C@@H](CC(C)C)NC(=O)[C@H](C)N(C)C(=O)[C@H](C(C)C)NC(=O)[C@H](Cc2ccc(-c3ccccc3)cc2)NC1=O [Example 1332] ({CH2CO}-Y(Carboxymethyl)[4Pal]DWL[Bip]V[NMeA][dL][Dab][Cha]VEC[Orn][Aun]-OH; thioether N-14) | 14.5
COC[C@@H]1NC(=O)CSC[C@@H](C(=O)N[C@@H](CCN)C(=O)NCCCCCCCCCCCCC(=O)O)NC(=O)[C@H](Cc2c[nH]cn2)NC(=O)[C@H](C(C)(C)O)NC(=O)[C@H](CC2CCCCC2)NC(=O)[C@H](CCN)NC(=O)[C@@H](CC(C)C)NC(=O)[C@H](C)N(C)C(=O)[C@H](CCC(N)=O)NC(=O)[C@H](Cc2ccc(-c3ccccc3)cc2)NC(=O)[C@H](Cc2ccc(C(=O)O)cc2)NC(=O)[C@H](Cc2cccc(C(F)(F)F)c2)NC(=O)[C@H](CC(=O)O)NC(=O)[C@H](Cc2ccc(OCC(=O)O)cc2)NC1=O [Example 1137] ({CH2CO}-S(Me)Y(Carboxymethyl)D[Phe(3-CF3)][Phe(4-COOH)][Bip]Q[NMeA][dL][Dab][Cha][Val(3-OH)]HC[Dab]-{NH(CH2)12COOH}; thioether N-14) | 13.5
CC(C)C[C@@H]1NC(=O)[C@H](Cc2c[nH]c3ccccc23)NC(=O)[C@H](CC(=O)O)NC(=O)[C@H](Cc2ccc(C(=O)O)cc2)NC(=O)[C@H](Cc2ccc(OCC(=O)O)cc2)NC(=O)CSC[C@@H](C(=O)N[C@@H](CCN)C(=O)NCCCCCCCCCCC(=O)O)NC(=O)[C@@H](CCC(N)=O)NC(=O)[C@H](C(C)C)NC(=O)[C@H](CC2CCCCC2)NC(=O)[C@H](CCN)NC(=O)[C@@H](CC(C)C)NC(=O)[C@H](C)N(C)C(=O)[C@H](C(C)C)NC(=O)[C@H](Cc2ccc(-c3ccccc3)cc2)NC1=O [Example 1339] ({CH2CO}-Y(Carboxymethyl)[Phe(4-COOH)]DWL[Bip]V[NMeA][dL][Dab][Cha]V[dQ]C[Dab][Aun]-OH; thioether N-14) | 28
CC(C)C[C@@H]1NC(=O)[C@H](Cc2c[nH]c3ccccc23)NC(=O)[C@H](CC(=O)O)NC(=O)[C@H](Cc2ccc(C(=O)O)cc2)NC(=O)[C@H](Cc2ccc(OCC(=O)O)cc2)NC(=O)CSC[C@@H](C(=O)NCC(=O)N[C@@H](CCCN)C(=O)NCCCCCCCCCCC(=O)O)NC(=O)[C@H](CO)NC(=O)[C@H](C(C)C)NC(=O)[C@H](CC2CCCCC2)NC(=O)[C@H](CCN)NC(=O)[C@H](CC(C)C)NC(=O)[C@H](C)N(C)C(=O)[C@H](C(C)C)NC(=O)[C@H](Cc2ccc(-c3ccccc3)cc2)NC1=O [Example 1038] ({CH2CO}-Y(Carboxymethyl)[Phe(4-COOH)]DWL[Bip]V[NMeA]L[Dab][Cha]VSCG[Orn][Aun]-OH; thioether N-14) | 13.2

Results, then the compound that gave them:

IC50 [nM] | Structure (SMILES)
203 | Cc1cccc(C[C@@H]2NC(=O)[C@H](CC(=O)O)NC(=O)[C@H](Cc3ccc(OCC(=O)O)cc3)NC(=O)[C@@H]([C@H](C)O)NC(=O)CSC[C@@H](C(=O)NCCOCCOCC(=O)NCCCCCCCCCCC(=O)O)NC(=O)[C@H]([C@@H](C)O)NC(=O)[C@H](C(C)C)NC(=O)[C@H](CC3CCCCC3)NC(=O)[C@H](CCN)NC(=O)[C@@H](CC(C)C)NC(=O)[C@H](C)N(C)C(=O)[C@H](CCCNC(N)=O)NC(=O)[C@H](Cc3ccc(-c4ccccc4)cc3)NC(=O)[C@H](C(C)C)NC2=O)c1 [Example 1402] ({CH2CO}-[dT]Y(Carboxymethyl)D[Phe(3-Me)]V[Bip][Cit][NMeA][dL][Dab][Cha]VTC[AEEA][Aun]-OH; thioether N-14)
47.9 | Cc1cccc(C[C@@H]2NC(=O)[C@H](CC(=O)O)NC(=O)[C@H](Cc3ccc(OCC(=O)O)cc3)NC(=O)[C@H](Cc3ccncc3)NC(=O)CSC[C@@H](C(=O)N[C@@H](CCCN)C(=O)N[C@@H](CO)C(=O)NCCCCCCCCCCCC(=O)O)NC(=O)[C@H](C(C)O)NC(=O)[C@H](C(C)C)NC(=O)[C@H](CC3CCCCC3)NC(=O)[C@H](CCN)NC(=O)[C@@H](CC(C)C)NC(=O)[C@H](C)N(C)C(=O)[C@H](CCCNC(=O)C3CC3)NC(=O)[C@H](Cc3ccc(-c4ccccc4)cc3)NC(=O)[C@H](Cc3ccc(O)cc3)NC2=O)c1 (stereo partly drawn) [Example 2403] ({CH2CO}-[4Pal]Y(Carboxymethyl)D[Phe(3-Me)]Y[Bip][Orn](Cyclopropanecarbonyl)[NMeA][dL][Dab][Cha]V[Thr(3ξ)]C[Orn]S[12Ado]-OH; thioether N-14)

Same assay, conditions: PE-labeled PD-L1-Ig 20 nM final, Jurkat-hPD-1 cells; read-out: Jurkat HPD1 PDL1 IC50

Structure (SMILES) | IC50 [nM]
Cc1cccc(C[C@@H]2NC(=O)[C@H](CC(=O)O)NC(=O)[C@H](Cc3ccc(OCC(=O)O)cc3)NC(=O)[C@H](Cc3ccncc3)NC(=O)CSC[C@@H](C(=O)N[C@@H](CCN)C(=O)NCCOCCOCC(=O)NCCCCCCCCCCC(=O)O)NC(=O)[C@H](CCC(=O)O)NC(=O)[C@H](C(C)(C)O)NC(=O)[C@H](CC3CCCCC3)NC(=O)[C@H](CCN)NC(=O)[C@@H](CC(C)C)NC(=O)[C@H](C)N(C)C(=O)[C@H](Cc3ccc(C(=O)O)cc3)NC(=O)[C@H](Cc3ccc(-c4ccccc4)cc3)NC(=O)[C@H](Cc3ccc(C(=O)O)cc3)NC2=O)c1 [Example 2485] ({CH2CO}-[4Pal]Y(Carboxymethyl)D[Phe(3-Me)][Phe(4-COOH)][Bip][Phe(4-COOH)][NMeA][dL][Dab][Cha][Val(3-OH)]EC[Dab][AEEA][Aun]-OH; thioether N-14) | 11.5
CC(=O)NCCCC[C@@H]1NC(=O)[C@H](C(C)(C)O)NC(=O)[C@H](CC2CCCCC2)NC(=O)[C@H](CCN)NC(=O)[C@@H](CC(C)C)NC(=O)[C@H](C)N(C)C(=O)[C@H](CCC(N)=O)NC(=O)[C@H](Cc2ccc(-c3ccccc3)cc2)NC(=O)[C@H](Cc2ccc(CCC(=O)O)cc2)NC(=O)[C@H](Cc2cccc(C(F)(F)F)c2)NC(=O)[C@H](CC(=O)O)NC(=O)[C@H](Cc2ccc(OCC(=O)O)cc2)NC(=O)[C@H](Cc2ccc(OCC(=O)O)cc2)NC(=O)CSC[C@@H](C(=O)N[C@@H](CCN)C(=O)NCCCCCCCCCCCCCCC(=O)O)NC1=O [Example 2607] ({CH2CO}-Y(Carboxymethyl)Y(Carboxymethyl)D[Phe(3-CF3)][Phe(4-CH2CH2COOH)][Bip]Q[NMeA][dL][Dab][Cha][Val(3-OH)]K(Ac)C[Dab]-{NH(CH2)14COOH}; thioether N-14) | 35.1

The remaining lines, values ahead:

IC50 [nM] | Structure (SMILES)
19.6 | Cc1cccc(C[C@@H]2NC(=O)[C@H](CC(=O)O)NC(=O)[C@H](Cc3ccc(C(=O)O)cc3)NC(=O)[C@H](Cc3ccc(F)cc3)NC(=O)CSC[C@@H](C(=O)N[C@@H](CCN)C(=O)NCCOCCOCC(=O)NCCCCCCCCCCC(=O)O)NC(=O)[C@H](CCC(=O)O)NC(=O)[C@H](C(C)C)NC(=O)[C@H](CC3CCCCC3)NC(=O)[C@H](CCN)NC(=O)[C@@H](CC(C)C)NC(=O)[C@H](C)N(C)C(=O)[C@H](Cc3ccc(C(=O)O)cc3)NC(=O)[C@H](Cc3ccc(-c4ccccc4)cc3)NC(=O)[C@H](Cc3ccc(C(=O)O)cc3)NC2=O)c1 [Example 2548] ({CH2CO}-[Phe(4-F)][Phe(4-COOH)]D[Phe(3-Me)][Phe(4-COOH)][Bip][Phe(4-COOH)][NMeA][dL][Dab][Cha]VEC[Dab][AEEA][Aun]-OH; thioether N-14)
4.8 | Cc1cccc(C[C@@H]2NC(=O)[C@H](CC(=O)O)NC(=O)[C@H](Cc3ccc(OCC(=O)O)cc3)NC(=O)[C@H](C(C)O)NC(=O)CSC[C@@H](C(=O)N[C@@H](CCN)C(=O)NCCOCCOCC(=O)NCCCCCCCCCCC(=O)O)NC(=O)[C@H](CCC(=O)O)NC(=O)[C@H](C(C)C)NC(=O)[C@H](CC3CCCCC3)NC(=O)[C@H](CCN)NC(=O)[C@@H](CC(C)C)NC(=O)[C@H](C)N(C)C(=O)[C@H](Cc3ccc(C(=O)O)cc3)NC(=O)[C@H](Cc3ccc(-c4ccccc4)cc3)NC(=O)[C@H](Cc3ccc(C(=O)O)cc3)NC2=O)c1 (stereo partly drawn) [Example 2553] ({CH2CO}-[Thr(3ξ)]Y(Carboxymethyl)D[Phe(3-Me)][Phe(4-COOH)][Bip][Phe(4-COOH)][NMeA][dL][Dab][Cha]VEC[Dab][AEEA][Aun]-OH; thioether N-14)
